Measurements reported in publication doi:10.1101/2025.09.29.679234, “Engineered antimicrobial-derived peptides to manipulate mixed microbial systems” (bioRxiv, 2025).
Read-outs that look alike come from different tables or passages of the source. No end group written: not given here. *: point of attachment. FITC = O=C1OC2(c3ccc(O)cc3Oc3cc(O)ccc32)c2ccc(NC(=S)*)cc21

Experiments:
L. seeligeri [1] = assay type: cell-based, Listeria seeligeri; details: for antimicrobial activity (in words): kill curve / growth inhibition, Figures S7 and S9
Protocol: To determine the potency of the purified pediocin PA-1, we generated kill-curves against a range of target bacteria (Figure 1B). The concentration range tested was 3 pM to 3 μM following 10-fold serial dilutions. […] This is in approximate agreement with the published potency of pediocin PA-1 [28] . Though the molecular mass of pediocin PA-1 is expected to be 4.5 kDa, we observed the partially purified peptide to migrate with an apparent mass of ~12.5 kDa (Figure 1B). However, subsequent analysis by LC-MS yielded peaks of multiple m/z with the predominant peak at the expected molecular size of 4.6 kDa (Figure S4). The purified pediocin PA-1, separated on denaturing but non-reducing SDS-PAGE (since this bacteriocin contains two crucial disulfide bonds), was subjected to agar-overlay assay using L. seeligeri as indicator organism (Figure S5).
The antimicrobial spectrum of pediocin PA-1 was assayed using a kill curve. Cultures grown overnight were resuspended in fresh medium at an OD600 of 0.05. EC50 was determined by incubating cells with varying concentrations of pediocin in a 96-well plate, and growth was measured at 600 nm after 24 h.
Figure S7. Growth inhibition of L. seeligeri by modified and unmodified pediocin PA-1.

B. subtilis = test: Cell-binding assay by flow cytometry; parameters: species or system Bacillus subtilis; details: flow cytometry
Protocol: (§1) The binding affinity and avidity of pediocin to various Gram-positive and Gram-negative bacteria were studied using flow cytometry. Late log-phase cells were washed in the sodium phosphate buffer (5 mM, pH 6.0) and resuspended at an OD600 of 10^–3 in sodium-acetate buffer (25 mM, pH 4.0), sodium phosphate buffer (5 mM, pH 6.0) or sodium phosphate buffer (5mM, pH 7.4) containing 1 % BSA (bovine serum albumin) and 100 mM NaCl. Cells were incubated with varying concentrations of the conjugated peptide at 4 °C for 30 min. The unbound peptide was removed by centrifugation, and the pellet was resuspended in their respective binding containing 1 % BSA. Flow cytometry was performed on an Attune NxT flow cytometer (Life Technologies/ThermoFisher Scientific, Carlsbad, CA). Data (≥10^4 events were recorded) was recorded using a […] (488 nm) voltage of 360 V, gating was performed on SSC-A versus SSC-H plot to reduce false events.

L. seeligeri [2] = test: Cell-binding assay by flow cytometry; parameters: species or system Listeria seeligeri; details: for binding at the tested pHs (in words): pH 4.0, 6.0 and 7.4, Figure S10
Protocol: as §1

[3] = tested on: L. seeligeri in a 5 species synthetic community; test: Depletion by FACS of FITC-labelled cells in the mixed community (16S V3-V4 amplicon sequencing of the fluorescence-negative population); assay type: cell-based, Listeria seeligeri; details: 40 μM of Ped-FITC printed in method, 4 °C 30 min, pH 6.0, 1 % BSA, 100 mM NaCl
Source text: We posited that pediocin PA-1 characterized here could be a potential tool to modulate the abundance of specific species in an intact microbial community. To this end, we pursued two approaches: 1) using synthetic pediocin PA-1 to deplete specific species by killing and 2) using FITC-conjugated pediocin PA-1 to deplete specific species by cell sorting. To deplete L. seeligeri by killing, we created a synthetic community of L. casei, L. plantarum L. cremoris, E. faecium, and L. seeligeri and grew it for 2 h. We then split the culture into 3 parts to which we added 1 μM, 10 μM, or 0 (control) unmodified pediocin PA-1 (Lifetein), respectively. We observed that after 4 h, the proportion of L. seeligeri in the control (untreated) increased from 18 % to 60 %. […] Next, we assessed the ability of FITC-conjugated pediocin (Ped-FITC) and its 15-mer version to deplete the target species through cell sorting. Again, we created a synthetic community containing L. seeligeri in abundance and assessed the proportion before and after FACS of FITC labeled cells. We attempted to sequence the fluorescence-positive population but were unsuccessful due to poor DNA yield. However, the genomic DNA isolated from the fluorescence-negative population indicated depletion of more than 50 % in the proportion of L. seeligeri from the synthetic community (Figure 4B). […]

L. coryniformis = test: Cell-binding assay by flow cytometry; parameters: species or system Lactobacillus coryniformis; details: flow cytometry, Atto488 conjugate up to 2 μM
Protocol: as §1

Molecule: CC[C@H](C)[C@@H]1NC(=O)[C@@H](NC(=O)[C@@H](NC(=O)[C@@H](NC(=O)[C@H](C)NC(=O)[C@H](CCCCN)NC(=O)CNC(=O)[C@H](Cc2c[nH]c3ccccc23)NC(=O)[C@H](CC(=O)O)NC(=O)[C@@H](NC(=O)[C@H](CO)NC(=O)[C@@H]2CSSC[C@H](NC(=O)[C@@H](NC(=O)[C@@H](NC(=O)CNC(=O)[C@H](CC(N)=O)NC(=O)CNC(=O)[C@H](Cc3ccc(O)cc3)NC(=O)[C@H](Cc3ccc(O)cc3)NC(=O)[C@@H](N)CCCCN)C(C)C)[C@@H](C)O)C(=O)NCC(=O)N[C@@H](CCCCN)C(=O)N[C@@H](Cc3c[nH]cn3)C(=O)N[C@@H](CO)C(=O)N2)C(C)C)[C@@H](C)O)[C@@H](C)O)CSSC[C@@H](C(N)=O)NC(=O)[C@H](CCCCN)NC(=O)[C@H](Cc2c[nH]cn2)NC(=O)[C@H](CC(N)=O)NC(=O)CNC(=O)[C@H](CCC(N)=O)NC(=O)[C@H](Cc2c[nH]cn2)NC(=O)CNC(=O)CNC(=O)[C@H]([C@@H](C)O)NC(=O)[C@H](C)NC(=O)[C@H](Cc2c[nH]c3ccccc23)NC(=O)[C@H](C)NC(=O)[C@H](CCSC)NC(=O)[C@H](C)NC(=O)CNC(=O)[C@H](CC(N)=O)NC(=O)[C@H](CC(N)=O)NC(=O)[C@H]([C@@H](C)CC)NC1=O [pediocin PA-1 from Biomatik, reference compound]
- antimicrobial activity (in words) (L. seeligeri [1]): very low activity

Molecule: Ped-FITC: synthesized FITC-conjugated full-length pediocin PA-1 ({FITC}-KYYGNGVTCGKHSCSVDWGKATTCIINNGAMAWATGGHQGNHKC; disulfide (positions not given here); ends not checked; UniProt P29430 19-62, looked up)
- binding (in words) (B. subtilis; pH 6.0, highest concentration tested (30 μM)): modest binding
- binding at the tested pHs (in words) (L. seeligeri [2]): strong binding
- depletion in the proportion of L. seeligeri (fluorescence-negative population after FACS) [3]: more than 50%
- antimicrobial activity (in words) (L. seeligeri [1]; listed as FITC-conjugation at the N-terminus): abolished activity entirely
- antimicrobial activity (in words) (L. seeligeri [1]; listed as conjugate to FITC): very low activity

Molecule: Ped-488: purified biosynthetic pediocin conjugated to Atto488 using EDC-NHS chemistry (KYYGNGVTCGKHSCSVDWGKATTCIINNGAMAWATGGHQGNHKC; disulfide (positions not given here); ends not checked; also: Atto488 conjugated via EDC-NHS, site not given here; UniProt P29430 19-62, looked up)
- Kd (B. subtilis; Atto488 conjugate up to 2 μM, 4 °C 30 min, 1 % BSA, 100 mM NaCl, Hill fit, read-out: Apparent KD): ~467 nM
- reduction in potency relative to the unmodified peptide (L. seeligeri [1]; Atto488 conjugate vs unmodified pediocin): 10 fold
- antimicrobial activity (in words) (L. seeligeri [1]): maintained its antimicrobial activity
- antimicrobial activity (in words) (L. seeligeri [1]; listed as Full-length pediocin conjugated to Atto488): retained antimicrobial activity
- antimicrobial activity (in words) (L. seeligeri [1]; listed as conjugate to Atto488): very low activity
- maximum median fluorescence (L. coryniformis): 6300 MFI
- Kd (L. coryniformis; 4 °C 30 min, 1 % BSA, 100 mM NaCl, Hill fit, read-out: Apparent KD): ~46 nM

Molecule: synthetic pediocin-Atto488 conjugate: Atto488 conjugated to the synthetic pediocin using EDC-NHS coupling (KYYGNGVTCGKHSCSVDWGKATTCIINNGAMAWATGGHQGNHKC; disulfide (positions not given here); ends not checked; also: Atto488 conjugated via EDC-NHS, site not given here; UniProt P29430 19-62, looked up)
- antimicrobial activity (in words) (L. seeligeri [1]): inactive

Molecule: synthetic pediocin-NBD conjugate: NBD (7-nitrobenz-2-oxa-1,3-diazole) conjugated to the synthetic pediocin using EDC-NHS coupling (KYYGNGVTCGKHSCSVDWGKATTCIINNGAMAWATGGHQGNHKC; disulfide (positions not given here); ends not checked; also: NBD conjugated via EDC-NHS, site not given here; UniProt P29430 19-62, looked up)
- antimicrobial activity (in words) (L. seeligeri [1]): inactive
- antimicrobial activity (in words) (L. seeligeri [1]; listed as conjugate to NBD): very low activity

Molecule: CC[C@H](C)[C@@H]1NC(=O)[C@@H](NC(=O)[C@@H](NC(=O)[C@@H](NC(=O)[C@H](C)NC(=O)[C@H](CCCCN)NC(=O)CNC(=O)[C@H](Cc2c[nH]c3ccccc23)NC(=O)[C@H](CC(=O)O)NC(=O)[C@@H](NC(=O)[C@H](CO)NC(=O)[C@@H]2CSSC[C@H](NC(=O)[C@@H](NC(=O)[C@@H](NC(=O)CNC(=O)[C@H](CC(N)=O)NC(=O)CNC(=O)[C@H](Cc3ccc(O)cc3)NC(=O)[C@H](Cc3ccc(O)cc3)NC(=O)[C@@H](N)CCCCN)C(C)C)[C@@H](C)O)C(=O)NCC(=O)N[C@@H](CCCCN)C(=O)N[C@@H](Cc3c[nH]cn3)C(=O)N[C@@H](CO)C(=O)N2)C(C)C)[C@@H](C)O)[C@@H](C)O)CSSC[C@@H](C(N)=O)NC(=O)[C@H](CCCCN)NC(=O)[C@H](Cc2c[nH]cn2)NC(=O)[C@H](CC(N)=O)NC(=O)CNC(=O)[C@H](CCC(N)=O)NC(=O)[C@H](Cc2c[nH]cn2)NC(=O)CNC(=O)CNC(=O)[C@H]([C@@H](C)O)NC(=O)[C@H](C)NC(=O)[C@H](Cc2c[nH]c3ccccc23)NC(=O)[C@H](C)NC(=O)[C@H](CCSC)NC(=O)[C@H](C)NC(=O)CNC(=O)[C@H](CC(N)=O)NC(=O)[C@H](CC(N)=O)NC(=O)[C@H]([C@@H](C)CC)NC1=O [synthetic pediocin PA-1, reference compound]
- EC50 (L. seeligeri [1]; 24 h): ~40 nM

Molecule: 30-mer-FITC: FITC-conjugated extended 30-mer fragment (S15-K43) of pediocin PA-1 (SVDWGKATTCIINNGAMAWATGGHQGNHK; also: FITC-conjugated, site not given here; UniProt P29430 33-61, looked up, fragment)
- binding at the tested pHs (in words) (L. seeligeri [2]): pH-dependent binding
- binding (in words) (L. seeligeri [2]; pH 6.0, L. seeligeri or the other species tested): unable to bind to any species tested
